Reference: paper PMC7170311 (Journal of Enzyme Inhibition and Medicinal Chemistry, 2020)

Molecular target: T1, Gal4-DBD-RXRα-LBD (Homo sapiens, UniProt P19793)
T1 sequence (P19793 227-458 limits assumed): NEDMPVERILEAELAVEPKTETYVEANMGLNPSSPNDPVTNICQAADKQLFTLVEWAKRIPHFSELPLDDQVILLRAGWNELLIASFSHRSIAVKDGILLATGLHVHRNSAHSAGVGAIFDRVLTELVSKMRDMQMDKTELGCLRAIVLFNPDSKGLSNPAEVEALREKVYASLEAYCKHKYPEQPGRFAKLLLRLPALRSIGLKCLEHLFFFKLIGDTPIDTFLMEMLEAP
Assay: cell-based
Conditions: HEK-293T, read-out: inhibition of 9-cis-RA-induced RXRα transactivation

For Cc1ccc(NC(=O)NNC(=O)c2ccc(Nc3nccc(-c4cccnc4)n3)cc2)cc1 [Compound 6k, 2-(4-((4-(pyridin-3-yl)pyrimidin-2-yl)amino)benzoyl)-N-(p-tolyl)hydrazine-1-carboxamide], which inhibition at 1 µM is on record?
The inhibition at 1 µM was greater than 50%.
